Data published in PubChem BioAssay AID248 (DTP/NCI, 2004).
Values joined by “and” are separate entries in the source; they are usually repeats but may differ in a detail not shown here. Identical values can stand only once. Toxic doses and inconclusive results are not listed. No stated cut-off is given here; in the data, active means T/C of 150% or more; inactive means T/C below 125%.

System: L1210 leukemia ip in BDF1 mice, survival T/C
Experiment: NCI In Vivo Anticancer Drug Screen. Data for tumor model L1210 Leukemia (intraperitoneal) in B6D2F1 (BDF1) mice
Settings: endpoint: mean survival time, higher = longer survival
Method in brief: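 Tumor cells were implanted, animals were treated, and survival was followed. The result divides the treated measurement by the vehicle-control measurement.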

[1] = dose: 25.0 mg/kg/injection, schedule: Q01DX009 (ip), vehicle: saline
[2] = dose: 25.0 mg/kg/injection, schedule: Q04DX002 (ip), vehicle: Klucel (hydroxypropylcellulose) (HPC)
[3] = dose: 50.0 mg/kg/injection, schedule: Q04DX002 (ip), vehicle: Klucel (hydroxypropylcellulose) (HPC)
[4] = dose: 100.0 mg/kg/injection, schedule: Q04DX002 (ip), vehicle: Klucel (hydroxypropylcellulose) (HPC)
[5] = dose: 100.0 mg/kg/injection, schedule: Q01DX009 (ip), vehicle: Klucel (hydroxypropylcellulose) (HPC)
[6] = dose: 100.0 mg/kg/injection, schedule: Q04DX003 (ip), vehicle: Klucel (hydroxypropylcellulose) (HPC)
[7] = dose: 200.0 mg/kg/injection, schedule: Q01DX009 (ip), vehicle: Klucel (hydroxypropylcellulose) (HPC)
[8] = dose: 200.0 mg/kg/injection, schedule: Q04DX003 (ip), vehicle: Klucel (hydroxypropylcellulose) (HPC)
[9] = dose: 100.0 mg/kg/injection, schedule: Q01DX001 (ip), vehicle: carboxymethylcellulose (CMC)
[10] = dose: 50.0 mg/kg/injection, schedule: Q01DX009 (ip), vehicle: saline with Tween-80
[11] = dose: 100.0 mg/kg/injection, schedule: Q04DX003 (ip), vehicle: saline with Tween-80
[12] = dose: 200.0 mg/kg/injection, schedule: Q04DX003 (ip), vehicle: saline with Tween-80
[13] = dose: 100.0 mg/kg/injection, schedule: Q01DX009 (ip), vehicle: saline with Tween-80
[14] = dose: 200.0 mg/kg/injection, schedule: Q01DX009 (ip), vehicle: saline with Tween-80

Measured: T/C

CN1CCN(c2ccc([N+](=O)[O-])c3no[n+]([O-])c23)CC1
inactive: dose: 0.2 mg/kg/injection, schedule: Q03HX024 (ip), vehicle: saline with Tween-80 104 % of control | dose: 0.39 mg/kg/injection, schedule: Q03HX024 (ip), vehicle: saline with Tween-80 100 % of control | dose: 0.78 mg/kg/injection, schedule: Q03HX024 (ip), vehicle: saline with Tween-80 111 % of control | dose: 1.56 mg/kg/injection, schedule: Q03HX024 (ip), vehicle: saline with Tween-80 105 % of control | dose: 3.13 mg/kg/injection, schedule: Q03HX024 (ip), vehicle: saline with Tween-80 109 % of control | dose: 7.5 mg/kg/injection, schedule: Q01DX009 (ip), vehicle: saline 108 % of control and 115 % of control | dose: 10.0 mg/kg/injection, schedule: Q01DX009 (ip), vehicle: saline 118 % of control | dose: 15.0 mg/kg/injection, schedule: Q01DX009 (ip), vehicle: saline 115 % of control and 124 % of control | [1] 117 % of control | [2] 104 % of control | [3] 104 % of control | [4] 113 % of control

CC12CCC3c4ccc(Oc5ccccc5[N+](=O)[O-])cc4CCC3C1CCC2=O (stereo unspecified)
inactive: dose: 100.0 mg/kg/injection, schedule: Q01DX001 (sc), vehicle: steriod suspending solution 100 % of control | dose: 200.0 mg/kg/injection, schedule: Q01DX001 (sc), vehicle: steriod suspending solution 103 % of control | dose: 400.0 mg/kg/injection, schedule: Q01DX001 (sc), vehicle: steriod suspending solution 103 % of control

Cc1ccc([N+](=O)[O-])cc1NC(=O)COc1ccc(Cl)cc1Cl
inactive: [5] 96 % of control | [6] 95 % of control | [7] 91 % of control | [8] 102 % of control | dose: 400.0 mg/kg/injection, schedule: Q01DX009 (ip), vehicle: Klucel (hydroxypropylcellulose) (HPC) 94 % of control | dose: 400.0 mg/kg/injection, schedule: Q04DX003 (ip), vehicle: Klucel (hydroxypropylcellulose) (HPC) 91 % of control

O=S(=O)(F)c1ccccc1S(=O)(=O)Cl
inactive: dose: 25.0 mg/kg/injection, schedule: Q04DX003 (ip), vehicle: Klucel (hydroxypropylcellulose) (HPC) 97 % of control | dose: 50.0 mg/kg/injection, schedule: Q04DX003 (ip), vehicle: Klucel (hydroxypropylcellulose) (HPC) 92 % of control | [9] 95 % of control | [6] 92 % of control

CCOC(=O)C(CC)(OC(C)=O)C(=O)CBr (stereo unspecified)
inactive: dose: 75.0 mg/kg/injection, schedule: Q01DX001 (ip), vehicle: acetone 87 % of control

CCN(CC)CCOCCOC(=O)C(CC)(CC)c1cccc2ccccc12
inactive: [2] 93 % of control | [3] 97 % of control | [4] 93 % of control

Nc1nc(-c2ccccc2N=NN2CCCCC2)nc2ccccc12
inactive: dose: 50.0 mg/kg/injection, schedule: Q01DX009 (ip), vehicle: Klucel (hydroxypropylcellulose) (HPC) 107 % of control | [5] 118 % of control | [6] 109 % of control | [7] 107 % of control | [8] 104 % of control

COC(=O)c1cc(C)c(C(=O)OC)cc1C
inactive: dose: 100.0 mg/kg/injection, schedule: Q01DX009 (ip), vehicle: saline sonified 97 % of control | dose: 200.0 mg/kg/injection, schedule: Q01DX009 (ip), vehicle: saline sonified 91 % of control | dose: 400.0 mg/kg/injection, schedule: Q01DX009 (ip), vehicle: saline sonified 88 % of control

CCC1=C2C(=O)c3ccccc3C2=C(C)S(=O)(=O)O1
inactive: dose: 12.5 mg/kg/injection, schedule: Q01DX009 (ip), vehicle: saline with Tween-80 95 % of control | dose: 25.0 mg/kg/injection, schedule: Q01DX009 (ip), vehicle: saline with Tween-80 108 % of control | [10] 94 % of control and 111 % of control | [11] 96 % of control | [12] 96 % of control

COc1ccc(C(=O)/C=C/c2cccc([N+](=O)[O-])c2)cc1
inactive: [10] 97 % of control | [13] 97 % of control | [14] 97 % of control

ClCCOCCOCCOCCCl
inactive: dose: 75.0 mg/kg/injection, schedule: Q01DX009 (ip), vehicle: saline with Tween-80 97 % of control | [11] 97 % of control | dose: 150.0 mg/kg/injection, schedule: Q01DX009 (ip), vehicle: saline with Tween-80 93 % of control | [12] 106 % of control | dose: 300.0 mg/kg/injection, schedule: Q01DX009 (ip), vehicle: saline with Tween-80 93 % of control | dose: 400.0 mg/kg/injection, schedule: Q04DX003 (ip), vehicle: saline with Tween-80 102 % of control

CC(CCl)N(CCCl)Cc1cccc(Nc2ncnc3nc[nH]c23)c1 (stereo unspecified)
inactive: dose: 1.1 mg/kg/injection, schedule: Q01DX015 (ip), vehicle: saline 122 % of control | dose: 1.8 mg/kg/injection, schedule: Q01DX015 (ip), vehicle: saline 112 % of control | dose: 3.0 mg/kg/injection, schedule: Q01DX015 (ip), vehicle: saline 109 % of control | dose: 4.4 mg/kg/injection, schedule: Q01DX001 (ip), vehicle: saline 120 % of control | dose: 5.0 mg/kg/injection, schedule: Q01DX001 (ip), vehicle: saline 121 % of control | dose: 5.0 mg/kg/injection, schedule: Q01DX015 (ip), vehicle: saline 102 % of control | dose: 6.6 mg/kg/injection, schedule: Q01DX001 (ip), vehicle: saline 120 % of control | dose: 20.0 mg/kg/injection, schedule: Q01DX001 (ip), vehicle: saline 117 % of control

CC(=O)Nc1ccc(S(=O)(=O)CO)cc1
inactive: dose: 100.0 mg/kg/injection, schedule: Q01DX001 (ip), vehicle: Klucel (hydroxypropylcellulose) (HPC) 102 % of control | dose: 200.0 mg/kg/injection, schedule: Q01DX001 (ip), vehicle: Klucel (hydroxypropylcellulose) (HPC) 102 % of control | dose: 400.0 mg/kg/injection, schedule: Q01DX001 (ip), vehicle: Klucel (hydroxypropylcellulose) (HPC) 102 % of control

C#CCCC#C
inactive: [10] 104 % of control | [13] 109 % of control | [11] 103 % of control | [14] 102 % of control | [12] 104 % of control

Clc1ccc(/C=N/Nc2nc3ccccc3s2)cc1
inactive: dose: 222.0 mg/kg/injection, schedule: Q01DX Z (ip), vehicle: methylcellulose (MC) 97 % of control | dose: 333.0 mg/kg/injection, schedule: Q01DX Z (ip), vehicle: methylcellulose (MC) 101 % of control | dose: 500.0 mg/kg/injection, schedule: Q01DX Z (ip), vehicle: methylcellulose (MC) 91 % of control

C[As](C)[Se]CC1OC(O)C(O)C(O)C1O (stereo unspecified)
inactive: [10] 104 % of control

COc1ccc(/C=C/[N+](=O)[O-])cc1O
inactive: [1] 110 % of control | dose: 25.0 mg/kg/injection, schedule: Q04DX003 (ip), vehicle: saline 98 % of control | dose: 50.0 mg/kg/injection, schedule: Q01DX009 (ip), vehicle: saline 102 % of control | dose: 50.0 mg/kg/injection, schedule: Q04DX003 (ip), vehicle: saline 98 % of control | dose: 100.0 mg/kg/injection, schedule: Q04DX003 (ip), vehicle: saline 100 % of control | dose: 200.0 mg/kg/injection, schedule: Q04DX003 (ip), vehicle: saline 86 % of control

Cc1cc(Cl)c2ccccc2n1
inactive: dose: 37.5 mg/kg/injection, schedule: Q04DX003 (ip), vehicle: saline 103 % of control | dose: 75.0 mg/kg/injection, schedule: Q01DX001 (ip), vehicle: other 108 % of control | dose: 75.0 mg/kg/injection, schedule: Q04DX003 (ip), vehicle: saline 95 % of control

CC(C(=O)c1ccccc1)c1ccccc1 (stereo unspecified)
inactive: [10] 97 % of control | [13] 87 % of control | [4] 106 % of control | dose: 100.0 mg/kg/injection, schedule: Q04DX002 (ip), vehicle: saline with Tween-80 90 % of control | [14] 87 % of control | dose: 200.0 mg/kg/injection, schedule: Q04DX002 (ip), vehicle: Klucel (hydroxypropylcellulose) (HPC) 91 % of control | dose: 200.0 mg/kg/injection, schedule: Q04DX002 (ip), vehicle: saline with Tween-80 107 % of control | dose: 400.0 mg/kg/injection, schedule: Q04DX002 (ip), vehicle: Klucel (hydroxypropylcellulose) (HPC) 98 % of control | dose: 400.0 mg/kg/injection, schedule: Q04DX002 (ip), vehicle: saline with Tween-80 101 % of control

CC(C)(C)CC(C)(C)c1ccc(OCCOCCSC(=N)N)cc1
inactive: dose: 50.0 mg/kg/injection, schedule: Q01DX001 (ip), vehicle: carboxymethylcellulose (CMC) 93 % of control | [9] 98 % of control
